Like-named read-outs stand apart in the source and are kept apart here.
Legend:
[1] = system: recombinant human Bcl-2-G101V protein; experiment: Bcl-2-G101V TR-FRET Assay; assay type: binding; settings: ratio of biochemical IC50 Bcl-2 G101V / Bcl-2 WT
Summary of the method: (§1)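 TR-FRET read at excitation 337 nm with emission at 490 nm and 520 nm. Inhibition of Bcl-2-G101V binding to its ligand across increasing compound concentrations was calculated from the 490/520 nm fluorescence ratio, and IC50 values came from four-parameter logistic fits.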

[2] = target: recombinant human Bcl-2-G101V protein (Homo sapiens (Human), UniProt P10415, G101V); experiment: Bcl-2-G101V TR-FRET Assay; assay type: binding; settings: Bcl-2 G101V mutant, TR-FRET; read-out: Biochemical assay (IC50, nM) Bcl-2 G101V
Summary of the method: as §1

[3] = target: Recombinant human Bcl-2 protein (Homo sapiens (Human), UniProt P10415); experiment: Bcl-2 TR-FRET Assay; assay type: binding
Summary of the method: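 Compounds were pre-incubated with 0.05 nM recombinant Bcl-2 for 0.5 h at room temperature in potassium phosphate buffer, pH 7.5. FITC-Bak peptide (0.5 nM) and Tb-cryptate antibody were then added for 1 h. Percent inhibition from TR-FRET signals gave IC50 values.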

[4] = system: RS4;11 (BCL-2 dependent acute lymphoblastic leukemia cell line); experiment: RS4;11 Cell Proliferation Assay; assay type: cell-based; settings: Homo sapiens, RS4-11, RS4;11 cells, read-out: Cellular proliferation assay (IC50, nM) RS4
Summary of the method: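 RS4;11 cells, 50,000 per well in RPMI-1640 with 10% FBS, treated 48 h at 37 °C with a 10-point dilution series topping at 1 μM. Viability read by CellTiter-Glo ATP luminescence; mean IC50 reported.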

[5] = target: recombinant human Bcl-2 D103Y protein (Homo sapiens (Human), UniProt P10415, D103Y); experiment: Bcl-2-D103Y Biochemical Assay (TR-FRET); assay type: binding; settings: for IC50: TR-FRET, FITC labeled Bak peptide; for Ratio of Bcl-2 D103Y/Bcl-2 WT: ratio of IC50
Summary of the method: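 Recombinant human Bcl-2 D103Y binding to its ligand measured by TR-FRET (ex 337 nm, em 490/520 nm) with increasing compound concentrations. Percent inhibition from the 490/520 nm ratio; IC50 from four-parameter logistic fit.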

[6] = system: BCL-2 G101V knock-in cell line H96 (derive from RS4;11); experiment: Bcl 2-G101V Knock-In RS4;11 Cell Proliferation Assay; assay type: cell-based; settings: Homo sapiens, RS4;11 Bcl-2 G101V knock-in clone H96, 48 hrs, CellTiter-GLO, read-out: Cellular proliferation assay (IC50, nM) RS4
Summary of the method: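 H96, a CRISPR-generated RS4;11 clone carrying BCL2-G101V knock-in (WES/RNA-seq validated), seeded 50,000 per well and exposed 48 h at 37 °C to 10-point dilutions topping at 1 or 10 μM. Viability by CellTiter-Glo luminescence; mean IC50.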

[7] = Bcl-2 wild type, TR-FRET, read-out: Biochemical assay (IC50, nM) Bcl-2 WT
[8] = wild type Bcl-2, unit inferred, read-out: Bcl-2 WT

Which “Ratio of Bcl-2 G101V/WT” value [1] does the source give for `COc1ccc(CN2CCN(C3CC4(CCN(c5ccc(C(=O)NS(=O)(=O)c6ccc(NC[C@H]7CC[C@](C)(O)CC7)c([N+](=O)[O-])c6)c(Oc6cnc7[nH]cc(F)c7c6)c5)CC4)C3)[C@H](c3ccccc3C(C)C)C2)cn1` [Example 217, 2-((3-fluoro-1H-pyrrolo[2,3-b]pyridin-5-yl)oxy)-N-((4-((((1r,4r)-4-hydroxy-4-methylcyclohexyl)methyl)amino)-3-nitrophenyl)sulfonyl)-4-(2-((R)-2-(2-isopropylphenyl)-4-((6-methoxypyridin-3-yl)methyl)piperazin-1-yl)-7-azaspiro[3.5]nonan-7-yl)benzamide] here?
Its value is 2.4.

What about the IC50 [2] of the same molecule?
Its IC50 is 0.17 nM.

What about the IC50 [3, 7] of the same molecule?
The IC50 was 0.074 nM.

What about the IC50 [3, 8] of the same molecule?
Its IC50 is 0.074 nM.

What about the IC50 [4] of the same molecule?
The IC50 was 0.11 nM.

And the IC50 [5]?
Its IC50 is 0.1 nM.

And the “Ratio of Bcl-2 D103Y/Bcl-2 WT” value [5]?
Its value is 1.4.

What about the IC50 [6] of the same molecule?
Its IC50 is 0.41 nM.

How did the “Ratio of Bcl-2 G101V/WT” value [1] turn out when `[2H]C([2H])([2H])Oc1ccc(CN2CCN(C3CC4(C3)CN(c3ccc(C(=O)NS(=O)(=O)c5ccc(NC[C@H]6CC[C@](C)(O)CC6)c([N+](=O)[O-])c5)c(Oc5cnc6[nH]cc(F)c6c5)c3)C4)[C@H](c3ccccc3C(C)C)C2)cc1` [Example 218, 2-((3-fluoro-1H-pyrrolo[2,3-b]pyridin-5-yl)oxy)-N-((4-((((1r,4r)-4-hydroxy-4-methylcyclohexyl)methyl)amino)-3-nitrophenyl)sulfonyl)-4-(6-((R)-2-(2-isopropylphenyl)-4-(4-(methoxy-d3)benzyl)piperazin-1-yl)-2-azaspiro[3.3]heptan-2-yl) benzamide] was run?
Its value is 2.5.

What about the IC50 [2] of the same molecule?
Its IC50 is 0.25 nM.

And the IC50 [3, 7]?
The IC50 was 0.1 nM.

What about the IC50 [3, 8] of the same molecule?
Its IC50 is 0.1 nM.

And the IC50 [4]?
Its IC50 is 0.12 nM.

What about the IC50 [5] of the same molecule?
Its IC50 is 0.11 nM.

And the “Ratio of Bcl-2 D103Y/Bcl-2 WT” value [5]?
The value was 1.0.

And the IC50 [6]?
Its IC50 is 0.29 nM.

`COc1ccc(CN2CCN(C3CC4(CCN(c5ccc(C(=O)NS(=O)(=O)c6ccc(NCC7(F)CCC(C)(O)CC7)c([N+](=O)[O-])c6)c(Oc6cnc7[nH]ccc7c6)c5)CC4)C3)[C@H](c3ccccc3C(C)C)C2)cc1` (stereo partly drawn) [Example 225, (R)-2-((1H-pyrrolo[2,3-b]pyridin-5-yl)oxy)-N-((4-(((1-fluoro-4-hydroxy-4-methylcyclohexyl)methyl)amino)-3-nitrophenyl)sulfonyl)-4-(2-(2-(2-isopropylphenyl)-4-(4-methoxybenzyl)piperazin-1-yl)-7-azaspiro[3.5]nonan-7-yl) benzamide] was tested. Which “Ratio of Bcl-2 G101V/WT” value [1] did it give?
The value was 4.

And the IC50 [2]?
The IC50 was 0.37 nM.

What about the IC50 [3, 7] of the same molecule?
Its IC50 is 0.092 nM.

And the IC50 [3, 8]?
Its IC50 is 0.092 nM.

And the IC50 [4]?
The IC50 was 0.13 nM.

And the IC50 [5]?
Its IC50 is 0.1 nM.

And the “Ratio of Bcl-2 D103Y/Bcl-2 WT” value [5]?
Its value is 1.1.

What about the IC50 [6] of the same molecule?
The IC50 was 0.65 nM.

`CC(C)c1ccccc1[C@@H]1CN(Cc2ccc(F)c(F)c2)CCN1C1CC2(C1)CN(c1ccc(C(=O)NS(=O)(=O)c3ccc(NC[C@H]4CC[C@](C)(O)CC4)c([N+](=O)[O-])c3)c(Oc3cnc4[nH]cc(F)c4c3)c1)C2` [Example 229, 4-(6-((R)-4-(3,4-difluorobenzyl)-2-(2-isopropylphenyl)piperazin-1-yl)-2-azaspiro[3.3]heptan-2-yl)-2-((3-fluoro-1H-pyrrolo[2,3-b]pyridin-5-yl)oxy)-N-((4-((((1r,4r)-4-hydroxy-4-methylcyclohexyl)methyl)amino)-3-nitrophenyl)sulfonyl) benzamide] was tested. Which “Ratio of Bcl-2 G101V/WT” value [1] did it give?
Its value is 2.5.

What about the IC50 [2] of the same molecule?
The IC50 was 0.96 nM.

What about the IC50 [3, 7] of the same molecule?
The IC50 was 0.38 nM.

And the IC50 [3, 8]?
The IC50 was 0.38 nM.

What about the IC50 [4] of the same molecule?
Its IC50 is 0.12 nM.

And the IC50 [5]?
Its IC50 is 0.45 nM.

What about the “Ratio of Bcl-2 D103Y/Bcl-2 WT” value [5] of the same molecule?
Its value is 1.2.

What about the IC50 [6] of the same molecule?
Its IC50 is 0.53 nM.

What does the source list for `COc1cc(CN2CCN(C3CC4(C3)CN(c3ccc(C(=O)NS(=O)(=O)c5ccc(NC[C@H]6CC[C@](C)(O)CC6)c([N+](=O)[O-])c5)c(Oc5cnc6[nH]cc(F)c6c5)c3)C4)[C@H](c3ccccc3C(C)C)C2)cc(C)c1OC` [Example 231, 4-(6-((R)-4-(3,4-dimethoxy-5-methylbenzyl)-2-(2-isopropylphenyl)piperazin-1-yl)-2-azaspiro[3.3]heptan-2-yl)-2-((3-fluoro-1H-pyrrolo[2,3-b]pyridin-5-yl)oxy)-N-((4-((((1r,4r)-4-hydroxy-4-methylcyclohexyl)methyl)amino)-3-nitrophenyl)sulfonyl) benzamide]?
Ratio of Bcl-2 G101V/WT [1]: 1.3; IC50 [2]: 0.35 nM; IC50 [3, 7]: 0.27 nM; IC50 [3, 8]: 0.27 nM; IC50 [4]: 0.12 nM; IC50 [5]: 0.45 nM; Ratio of Bcl-2 D103Y/Bcl-2 WT [5]: 1.7; IC50 [6]: 0.38 nM

For `COc1ccc(CN2CCN(C3CC4(CCN(c5ccc(C(=O)NS(=O)(=O)c6ccc(OCC7CCC(C)(O)CC7)c([N+](=O)[O-])c6)c(Oc6cnc7[nH]ccc7c6)c5)CC4)C3)[C@H](c3ccccc3C(C)C)C2)cc1` (stereo partly drawn) [Example 236, (R)-2-((1H-pyrrolo[2,3-b]pyridin-5-yl)oxy)-N-((4-((4-hydroxy-4-methylcyclohexyl)methoxy)-3-nitrophenyl)sulfonyl)-4-(2-(2-(2-isopropylphenyl)-4-(4-methoxybenzyl)piperazin-1-yl)-7-azaspiro[3.5]nonan-7-yl)benzamide], which “Ratio of Bcl-2 G101V/WT” value [1] is on record?
Its value is 3.5.

And the IC50 [2]?
The IC50 was 0.56 nM.

What about the IC50 [3, 7] of the same molecule?
Its IC50 is 0.16 nM.

What about the IC50 [3, 8] of the same molecule?
The IC50 was 0.16 nM.

What about the IC50 [4] of the same molecule?
The IC50 was 0.16 nM.

And the IC50 [5]?
Its IC50 is 0.22 nM.

And the “Ratio of Bcl-2 D103Y/Bcl-2 WT” value [5]?
Its value is 1.3.

And the IC50 [6]?
Its IC50 is 0.8 nM.

`COc1cc(CN2CCN(C3CC4(CCN(c5ccc(C(=O)NS(=O)(=O)c6ccc(NC[C@H]7CC[C@](C)(O)CC7)c([N+](=O)[O-])c6)c(Oc6cnc7[nH]ccc7c6)c5)CC4)C3)[C@H](c3ccccc3C(C)C)C2)cc2c1OCC2` [Example 239, 2-((1H-pyrrolo[2,3-b]pyridin-5-yl)oxy)-N-((4-((((1r,4r)-4-hydroxy-4-methylcyclohexyl)methyl)amino)-3-nitrophenyl)sulfonyl)-4-(2-((R)-2-(2-isopropylphenyl)-4-((7-methoxy-2,3-dihydrobenzofuran-5-yl)methyl)piperazin-1-yl)-7-azaspiro[3.5]nonan-7-yl)benzamide] was tested. Which “Ratio of Bcl-2 G101V/WT” value [1] did it give?
The value was 2.6.

And the IC50 [2]?
Its IC50 is 0.2 nM.

And the IC50 [3, 7]?
Its IC50 is 0.076 nM.

What about the IC50 [3, 8] of the same molecule?
Its IC50 is 0.076 nM.

And the IC50 [4]?
The IC50 was 0.12 nM.

And the IC50 [5]?
Its IC50 is 0.12 nM.

And the “Ratio of Bcl-2 D103Y/Bcl-2 WT” value [5]?
The value was 1.5.

And the IC50 [6]?
Its IC50 is 0.29 nM.

Which results are given for `COc1ccc(CN2CCN(C3CC4(C3)CN(c3ccc(C(=O)NS(=O)(=O)c5ccc(NC[C@H]6CC[C@](C)(O)CC6)c([N+](=O)[O-])c5)c(Oc5cnc6[nH]cc(F)c6c5)c3)C4)[C@H](c3ccccc3C(C)C)C2)nc1` [Example 241, 2-((3-fluoro-1H-pyrrolo[2,3-b]pyridin-5-yl)oxy)-N-((4-((((1r,4r)-4-hydroxy-4-methylcyclohexyl)methyl)amino)-3-nitrophenyl)sulfonyl)-4-(6-((R)-2-(2-isopropylphenyl)-4-((5-methoxypyridin-2-yl)methyl)piperazin-1-yl)-2-azaspiro[3.3]heptan-2-yl)benzamide]?
Ratio of Bcl-2 G101V/WT [1]: 2.7; IC50 [2]: 0.096 nM; IC50 [3, 7]: 0.035 nM; IC50 [3, 8]: 0.035 nM; IC50 [4]: 0.15 nM; IC50 [5]: 0.047 nM; Ratio of Bcl-2 D103Y/Bcl-2 WT [5]: 1.3; IC50 [6]: 0.32 nM

Which “Ratio of Bcl-2 G101V/WT” value [1] does the source give for `COc1cc(CN2CCN(C3CC4(C3)CN(c3ccc(C(=O)NS(=O)(=O)c5ccc(NC[C@H]6CC[C@](C)(O)CC6)c([N+](=O)[O-])c5)c(Oc5cnc6[nH]ccc6c5)c3)C4)[C@H](c3ccccc3C(C)C)C2)cnc1OC` [Example 242, 2-((1H-pyrrolo[2,3-b]pyridin-5-yl)oxy)-4-(6-((R)-4-((5,6-dimethoxypyridin-3-yl)methyl)-2-(2-isopropylphenyl)piperazin-1-yl)-2-azaspiro[3.3]heptan-2-yl)-N-((4-((((1r,4r)-4-hydroxy-4-methylcyclohexyl)methyl)amino)-3-nitrophenyl)sulfonyl)benzamide] here?
The value was 2.6.

What about the IC50 [2] of the same molecule?
The IC50 was 0.077 nM.

What about the IC50 [3, 7] of the same molecule?
The IC50 was 0.03 nM.

What about the IC50 [3, 8] of the same molecule?
The IC50 was 0.03 nM.

And the IC50 [4]?
The IC50 was 0.17 nM.

What about the IC50 [5] of the same molecule?
The IC50 was 0.033 nM.

And the “Ratio of Bcl-2 D103Y/Bcl-2 WT” value [5]?
The value was 1.1.

And the IC50 [6]?
The IC50 was 0.28 nM.
